This passage reports IC50 results from patent publication US10898481B2 (priority 2018, dated 2021).

One assay addresses hA2b/CHO (Homo sapiens (Human), UniProt P29275). Nature of the assay: cAMP inhibition assay in hA2b/CHO cells, 10 μM adenosine.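 Note: cells exposed to compound 30 min at 37 °C, then stimulated with adenosine a further 30 min, cAMP read after 60 min at room temperature.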 It is filed as cell-based. The note with it: read-out: cAMP & FLIPR IC50 (nM) hA2b.
A further assay concerns the target hA2a/CHO (Homo sapiens (Human), UniProt P29274). Description: cAMP inhibition assay in hA2a/CHO cells, 10 μM adenosine.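 Note: compounds added to cells 30 min ahead of adenosine, then a further 30 min at 37 °C with adenosine before cAMP detection.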 The assay is classed as cell-based. To be noted: read-out: cAMP & FLIPR IC50 (nM) hA2a.
A further assay addresses mA2a/CHO (Mus musculus (Mouse), UniProt Q60613). Description: cAMP inhibition assay in mA2a/CHO cells, 10 μM adenosine.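 Note: compounds preincubated 30 min at 37 °C before the adenosine challenge, then 30 min further stimulation, readout after 60 min detection reagent incubation at room temperature in 384-well plates.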 The assay is classed as cell-based. To be noted: read-out: cAMP & FLIPR IC50 (nM) mA2a.
Assay [1] has as its target hADORA1/CHO (hA1 expressing) cells (Homo sapiens (Human), UniProt P30542). Nature of the assay: cell-based. To be noted: FLIPR inhibition, 10 μM adenosine, read-out: cAMP & FLIPR IC50 (nM) hA1.

The term IC50 denotes the concentration that gives 50% inhibition.

The structures appear in SMILES notation.

hA2a/CHO, sequence (P29274 whole entry): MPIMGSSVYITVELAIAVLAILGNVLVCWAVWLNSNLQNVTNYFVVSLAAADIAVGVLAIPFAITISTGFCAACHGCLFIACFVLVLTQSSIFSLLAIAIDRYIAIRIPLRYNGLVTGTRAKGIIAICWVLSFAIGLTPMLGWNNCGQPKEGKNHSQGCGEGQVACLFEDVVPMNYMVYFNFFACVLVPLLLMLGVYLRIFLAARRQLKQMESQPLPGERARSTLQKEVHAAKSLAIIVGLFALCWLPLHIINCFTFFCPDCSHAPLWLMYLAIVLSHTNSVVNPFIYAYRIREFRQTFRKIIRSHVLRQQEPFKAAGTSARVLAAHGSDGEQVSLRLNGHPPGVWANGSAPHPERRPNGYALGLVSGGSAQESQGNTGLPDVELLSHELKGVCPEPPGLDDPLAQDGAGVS
hA2b/CHO, sequence (P29275 whole entry): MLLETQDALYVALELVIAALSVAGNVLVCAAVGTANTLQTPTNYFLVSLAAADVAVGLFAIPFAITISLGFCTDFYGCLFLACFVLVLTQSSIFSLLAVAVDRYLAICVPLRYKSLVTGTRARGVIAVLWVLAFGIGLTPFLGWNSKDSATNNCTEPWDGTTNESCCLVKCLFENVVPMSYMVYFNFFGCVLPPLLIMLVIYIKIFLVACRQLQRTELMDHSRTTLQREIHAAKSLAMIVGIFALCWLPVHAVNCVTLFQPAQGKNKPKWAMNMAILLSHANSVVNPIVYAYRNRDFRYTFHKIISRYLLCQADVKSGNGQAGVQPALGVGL
hADORA1/CHO (hA1 expressing) cells, sequence (P30542 whole entry): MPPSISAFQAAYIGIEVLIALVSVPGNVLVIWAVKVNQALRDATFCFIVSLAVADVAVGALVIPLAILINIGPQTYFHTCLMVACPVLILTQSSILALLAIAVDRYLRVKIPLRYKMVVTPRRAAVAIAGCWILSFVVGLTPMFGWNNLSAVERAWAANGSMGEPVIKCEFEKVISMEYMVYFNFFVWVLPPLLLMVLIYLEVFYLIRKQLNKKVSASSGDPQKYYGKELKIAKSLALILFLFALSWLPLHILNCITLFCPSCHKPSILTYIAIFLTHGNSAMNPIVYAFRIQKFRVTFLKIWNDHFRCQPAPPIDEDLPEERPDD
mA2a/CHO, sequence (Q60613 whole entry): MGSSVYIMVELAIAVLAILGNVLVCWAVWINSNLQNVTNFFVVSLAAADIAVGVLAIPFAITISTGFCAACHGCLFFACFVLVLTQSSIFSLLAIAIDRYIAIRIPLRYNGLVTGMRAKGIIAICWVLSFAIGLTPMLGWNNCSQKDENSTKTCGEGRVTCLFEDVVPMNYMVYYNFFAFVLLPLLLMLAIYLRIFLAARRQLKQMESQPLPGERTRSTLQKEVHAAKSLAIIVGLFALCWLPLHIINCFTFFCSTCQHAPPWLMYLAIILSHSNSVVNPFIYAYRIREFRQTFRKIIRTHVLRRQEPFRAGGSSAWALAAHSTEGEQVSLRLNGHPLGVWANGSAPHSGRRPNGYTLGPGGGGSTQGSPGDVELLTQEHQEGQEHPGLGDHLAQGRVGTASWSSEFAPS
Method for hA2a/CHO: (§1) hA2a/CHO, hA2b/CHO, hA3/CHO and mA2a/CHO (Genscript) were plated at 5×10^3 cells/well into 384-well polystyrene plates at the day of experiment. Compounds were pre-incubated with cells for 30 min at 37° C., 5% CO2. Then 10 μM adenosine was added to the cells and incubated for 30 min at 37° C., 5% CO2. Detection reagent (CISBIO) was added and the plates were incubated for 60 min at room temperature. The signal was captured by Envision.
Method for hA2b/CHO: as §1
Method for mA2a/CHO: as §1

With `CO[C@H]1C[C@H](NC(=O)c2nc(-c3ccc4ncc(C)n4c3)c(-c3ncco3)nc2N)C1` [Example 151, 3-amino-N-((1r,3r)-3-methoxycyclobutyl)-6-(3-methylimidazo [1,2-a]pyridin-6-yl)-5-(oxazol-2-yl) pyrazine-2-carboxamide], the IC50 came out at 193 nM at hA2b/CHO, 0.8 nM on hA2a/CHO, 12 nM at mA2a/CHO and 10000 nM in assay [1].

In the case of `CN1CCC[C@H]1CNC(=O)c1nc(-c2ccc3ncn(C)c3c2)c(-n2nccn2)nc1N` [Example 130, 3-amino-6-(1-methyl-1H-1,3-benzodiazol-6-yl)-N-[[(2S)-1-methylpyrrolidin-2-yl]methyl]-5-(2H-1,2,3-triazol-2-yl)pyrazine-2-carboxamide], the IC50 on hA2b/CHO is not below 10000 nM; at hA2a/CHO it was 295 nM; at mA2a/CHO, 2800 nM; in assay [1], 10000 nM.

Regarding `Cc1cnc2ccc(-c3nc(C(=O)NCCc4nccn4C)c(N)nc3-c3ncco3)cn12` [Example 205, 3-amino-N-(2-(1-methyl-1H-imidazol-2-yl)ethyl)-6-(3-methylimidazo[1,2-a]pyridin-6-yl)-5-(oxazol-2-yl)pyrazine-2-carboxamide], the IC50 at hA2b/CHO is 67 nM; at hA2a/CHO, 2 nM; on mA2a/CHO, 7.5 nM; in assay [1], 153 nM.

Regarding `Cc1cc(-c2nc(C(=O)NCc3ccccc3Br)c(N)nc2-c2ccc(F)cc2)cc(C)n1` [Example 80, 3-amino-N-(2-bromobenzyl)-6-(2,6-dimethylpyridin-4-yl)-5-(4-fluorophenyl) pyrazine-2-carboxamide], the IC50 at hA2b/CHO amounted to 4170 nM; on hA2a/CHO, 44 nM; on mA2a/CHO, 158 nM; in assay [1] it was 1400 nM.

Turning to `Cn1cc(-c2nc(C(=O)NCc3ncccc3CO)c(N)nc2-c2ncco2)ccc1=O` [Example 36, 3-amino-N-((3-(hydroxymethyl)pyridin-2-yl)methyl)-6-(1-methyl-6-oxo-1,6-dihydropyridin-3-yl)-5-(oxazol-2-yl)pyrazine-2-carboxamide], the IC50 at hA2b/CHO turned out to be 2530 nM; at hA2a/CHO, 180 nM; at mA2a/CHO it was 419 nM; in assay [1], 3010 nM.

Consider `Cc1ccn(-c2nc(N)c(C(=O)NC[C@H]3CCCN3C)nc2-c2ccc3ncc(C)n3c2)n1` [Example 201-2, (R)-3-amino-5-(3-methyl-1H-pyrazol-1-yl)-6-(3-methylimidazo[1,2-a]pyridin-6-yl)-N-((1-methylpyrrolidin-2-yl)methyl)pyrazine-2-carboxamide], for which the IC50 is more than 10000 nM on hA2b/CHO, 29 nM at hA2a/CHO, 519 nM at mA2a/CHO and more than 10000 nM in assay [1].

Take `COC(C)CNC(=O)c1nc(-c2ccc3ncc(C)n3c2)c(-c2ncco2)nc1N` (racemic) [Example 228, rac-3-amino-N-(2-methoxypropyl)-6-(3-methylimidazo[1,2-a]pyridin-6-yl)-5-(oxazol-2-yl)pyrazine-2-carboxamide]: the IC50 amounted to 210 nM on hA2b/CHO, 2.7 nM at hA2a/CHO, 23 nM on mA2a/CHO and 2020 nM in assay [1].

Take `Cc1cnc2ccc(-c3nc(C(=O)NC[C@@H]4CCCN4)c(N)nc3-c3ncco3)cn12` [Example 123, (S)-3-amino-6-(3-methylimidazo[1,2-a]pyridin-6-yl)-5-(oxazol-2-yl)-N-(pyrrolidin-2-ylmethyl)pyrazine-2-carboxamide]: the concentration for half-maximal inhibition (IC50) stood at 1310 nM at hA2b/CHO, 56 nM at hA2a/CHO, 153 nM on mA2a/CHO and 10000 nM in assay [1].

Regarding `COc1ccccc1CNC(=O)c1nc(-c2cc(C)nc(N)c2)c(-c2ccc(F)cc2)nc1N` [Example 83, 3-amino-6-(2-amino-6-methylpyridin-4-yl)-5-(4-fluorophenyl)-N-(2-methoxybenzyl)pyrazine-2-carboxamide], the IC50 was 547 nM on hA2b/CHO, 2 nM at hA2a/CHO, 116 nM at mA2a/CHO and 132 nM in assay [1].

As for `Cc1ccc(-c2nc(N)c(C(=O)NCc3c(F)cccc3F)nc2-c2ccc(=O)n(C)c2)o1` [Example 2, 3-amino-N-[(2,6-difluorophenyl)methyl]-6-(1-methyl-6-oxo-1,6-dihydropyridin-3-yl)-5-(5-methylfuran-2-yl)pyrazine-2-carboxamide], the IC50 came out at 92 nM at hA2b/CHO, 0.9 nM on hA2a/CHO, 21 nM at mA2a/CHO and 26 nM in assay [1].

With `COC(C)CNC(=O)c1nc(-c2ccc3ncc(C)n3c2)c(-c2ncco2)nc1N` (single isomer, unassigned; isomer 1) [Example 248, 3-amino-N-(2-methoxypropyl)-6-(3-methylimidazo[1,2-a]pyridin-6-yl)-5-(oxazol-2-yl)pyrazine-2-carboxamide (isomer 1)], the IC50 came to 140 nM at hA2b/CHO, 2.9 nM at hA2a/CHO, 18 nM on mA2a/CHO and 121 nM in assay [1].

`CNc1ccc(F)c(CNC(=O)c2nc(-c3ccc(=O)n(C)c3)c(-c3ncco3)nc2N)n1` [Example 50, 3-amino-N-[[3-fluoro-6-(methylamino)pyridin-2-yl]methyl]-6-(1-methyl-6-oxo-1,6-dihydropyridin-3-yl)-5-(1,3-oxazol-2-yl)pyrazine-2-carboxamide]: the IC50 on hA2b/CHO worked out at 249 nM; at hA2a/CHO it was 33 nM; on mA2a/CHO, 85 nM; in assay [1], 90 nM.

On to `COc1ccccc1C(=O)NCc1nc(-c2cc(C)nc(C)c2)c(-c2ccc(F)cc2)nc1N` [Example 86, N-((3-amino-6-(2,6-dimethylpyridin-4-yl)-5-(4-fluorophenyl)pyrazin-2-yl)methyl)-2-methoxybenzamide], for which the IC50 at hA2b/CHO amounted to 7830 nM; on hA2a/CHO, 5 nM; at mA2a/CHO it was 192 nM; in assay [1], 539 nM.

On to `CCc1cnn2ccc(-c3nc(C(=O)NC[C@@H]4CCCN4C)c(N)nc3-c3ncco3)cc12` [Example 129, (S)-3-amino-6-(3-ethylpyrazolo[1,5-a]pyridin-5-yl)-N-((1-methylpyrrolidin-2-yl)methyl)-5-(oxazol-2-yl)pyrazine-2-carboxamide], for which the IC50 at hA2b/CHO is not below 10000 nM; at hA2a/CHO it was 140 nM; on mA2a/CHO, 944 nM; in assay [1], 10000 nM.

For the molecule `CC(O)Cn1cc(-c2nc(C(=O)NCc3c(F)cccc3F)c(N)nc2-c2ncco2)ccc1=O` (single isomer, unassigned) [Example 108, 3-amino-N-(2,6-difluorobenzyl)-6-(1-(2-hydroxypropyl)-6-oxo-1,6-dihydropyridin-3-yl)-5-(oxazol-2-yl)pyrazine-2-carboxamide], the IC50 was found to be 132 nM at hA2b/CHO, 0.6 nM at hA2a/CHO, 3.6 nM on mA2a/CHO and 55 nM in assay [1].

For the molecule `Cc1cc(-c2nc(C(=O)NCc3ccccc3F)c(N)nc2-c2ccc(F)cc2)cc(C)n1` [Example 78, 3-amino-6-(2,6-dimethylpyridin-4-yl)-N-(2-fluorobenzyl)-5-(4-fluorophenyl)pyrazine-2-carboxamide], the IC50 at hA2b/CHO is not below 10000 nM; at hA2a/CHO, 44 nM; on mA2a/CHO, 934 nM; in assay [1] it was 2730 nM.

With `Cc1cnc2ccc(-c3nc(C(=O)NCCC(=O)N(C)C)c(N)nc3-c3ncco3)cn12` [Example 143, 3-amino-N-(3-(dimethylamino)-3-oxopropyl)-6-(3-methylimidazo[1,2-a]pyridin-6-yl)-5-(oxazol-2-yl)pyrazine-2-carboxamide], the IC50 at hA2b/CHO turned out to be 162 nM; at hA2a/CHO, 1.7 nM; at mA2a/CHO, 12 nM; in assay [1], 180 nM.

As to `Cc1cnc2ccc(-c3nc(C(=O)NCc4cccc(N5CC6(CCN6C)C5)n4)c(N)nc3-c3ncco3)cn12` [Example 171, 3-amino-N-[(6-[1-methyl-1,6-diazaspiro[3.3]heptan-6-yl]pyridin-2-yl)methyl]-6-[3-methylimidazo[1,2-a]pyridin-6-yl]-5-(1,3-oxazol-2-yl)pyrazine-2-carboxamide], the IC50 stood at 228 nM on hA2b/CHO, 1 nM on hA2a/CHO, 15 nM at mA2a/CHO and 589 nM in assay [1].

`Cc1cnc2ccc(-c3nc(C(=O)NCCOC(F)(F)F)c(N)nc3-c3ncco3)cn12` [Example 148, 3-amino-6-(3-methylimidazo[1,2-a]pyridin-6-yl)-5-(oxazol-2-yl)-N-(2-(trifluoromethoxy)ethyl)pyrazine-2-carboxamide]: the IC50 on hA2b/CHO was 99 nM; at hA2a/CHO, 0.5 nM; on mA2a/CHO, 1.1 nM; in assay [1], 69 nM.

Take `Nc1nc(-c2ncco2)c(-c2ccc3nccn3c2)nc1C(=O)NCc1cscn1` [Example 45, 3-amino-6-[imidazo[1,2-a]pyridin-6-yl]-5-(1,3-oxazol-2-yl)-N-[(1,3-thiazol-4-yl)methyl]pyrazine-2-carboxamide]: the IC50 came to 912 nM at hA2b/CHO, 94 nM on hA2a/CHO, 566 nM at mA2a/CHO and 10000 nM in assay [1].

Regarding `Cc1cnc2ccc(-c3nc(C(=O)NCC4(N(C)C)CC4)c(N)nc3-c3ccc(F)cc3)cn12` [Example 154, 3-amino-N-[[1-(dimethylamino)cyclopropyl]methyl]-5-(4-fluorophenyl)-6-[3-methylimidazo[1,2-a]pyridin-6-yl]pyrazine-2-carboxamide], the IC50 was 1150 nM on hA2b/CHO, 11 nM at hA2a/CHO, 121 nM on mA2a/CHO and 10000 nM in assay [1].

As to `Cc1cnc2ccc(-c3nc(C(=O)NCC4CC4)c(N)nc3-c3ncco3)cn12` [Example 155, 3-amino-N-(cyclopropylmethyl)-6-(3-methylimidazo[1,2-a]pyridin-6-yl)-5-(oxazol-2-yl)pyrazine-2-carboxamide], the IC50 at hA2b/CHO was determined as 188 nM; on hA2a/CHO, 0.6 nM; at mA2a/CHO, 12 nM; in assay [1], 3650 nM.
